Data reported in patent EP3650451A1, “COMPOUNDS AND THEIR USES AS FLUORESCENT PROBES” (Consejo Superior de Investigaciones Cientificas, priority 2017, dated 2019).
Values belong to the molecule of their own block, whether it stands above or below them.

Tests used:
[1] = tested on: SCC38 cells; test: Stereospecificity of the mitochondrial labeling, flow cytometry; assay type: cell-based, human; settings: all the selected concentrations, 30 min incubation
Experimental: • Fig. 1. In vivo labeling of SCC38 cells with compound 4 at different concentrations (50, 100 and 500 nM). Scale bar: 10 µm • Fig. 2. Flow cytometry studies in SCC38 and HeLa cell lines labeled with compound 4 and Mito Tracker® Red. Histograms wherein fluorescence intensity vs number of events is represented for each of the staining times (5, 15 and 30 min) and control (Ctrl), for the SCC38 and HeLa cells and for each of the two markers. • Fig. 3. Absorption (A) and fluorescence (B) spectra, normalized to molar absorption and fluorescence quantum yield of probe 4 in different solvents; chloroform (green), acetone (black), acetonitrile (red), ethanol (blue) and water (gray). • Fig. 4. […] (A) Flow cytometry analysis of SCC38 cells incubated in the presence (+FCCP) or absence (-FCCP) of FCCP 60 µM for 3 h before staining with 20 nM of 4 or 0.5 nm of MitoTracker. The data represent the mean fluorescence intensity (MFI) of the stained cells. […] The graphs show the fluorescence profiles of the regions of interest indicated with white lines in the right-hand panels. […] The data represent the mean fluorescence intensity (MFI) of the stained cells (upper panels) and representative images of the cytometry profiles (lower panels). • Fig. 7. […] (B) The data represent the mean fluorescence intensity (MFI) of the labeled cells. […]

[2] = Stability in water: time evolution in D2O followed by 1H NMR (hydrolysis); assay type: physicochemical; settings: 15 mM solution in D2O at 25 °C, read-out: t1/2 (hydrolysis) (converted)
Experimental: One of the critical factors that conditions the viability and applicability of functional dyes 3 and 4 as fluorescent mitochondrial probes is their stability in water, since these compounds contain two potentially labile B-O bonds linking the fluorophore with the carnitine substituent. This stability was determined analyzing the time evolution of 3 and 4 in a 15 mM solution in D2O at 25 °C using ^1H NMR. This technique makes it possible not only to define their stability, but also to identify the possible degradation products (Diagram 2). Both probes are hydrolyzed, generating free carnitine and the corresponding 4,4-dihydroxy-BODIPY derivatives 5 and 6. [drawing 8]
Compound 3 is quickly hydrolyzed (t1/2 = 10 min); however, the greater substitution of the tetramethylated derivative in 4 gives it greater stability (t1/2 = 6 h), which promotes its use as a fluorescent marker in live cells. Contrary to what might be believed, the generation of free carnitine and of the corresponding BODIPY derivatives 5 and 6 at physiological pH is, indeed, an advantage for its application in cell labels. Thus, (R)-carnitine is incorporated into the mitochondrial metabolism, while the boron of the hydrolyzed BODIPY can covalently bond to poly-hydroxilated molecules (for example, saccharides and glycoproteins), generating cyclic boronic esters. […]

[3] = Photophysical characterization: absorption and fluorescence spectra; assay type: physicochemical
Experimental: The photophysical characterization of probes 3 and 4 was carried out analyzing the corresponding absorption and fluorescence spectra in the UV-visible region of the spectrum.
Its photophysical behavior is dependent on the degree of substitution of the BODIPY, since the alkylation of the chromatophore induces sufficient steric hindrance to reduce the free rotation of the 8-mesityl group, a process that entails a significant reduction in fluorescence efficiency. Thus, probe 4 in water stands out for having a high molar absorption coefficient (3.8 × 10^4 M^-1 cm^-1 at 499 nm) and a very efficient fluorescence emission at 511 nm, with a quantum yield of up to 80%.

[4] = tested on: SCC38 cells; test: Inhibition of mitochondrial staining by (R)-palmitoylcarnitine (CACT substrate), flow cytometry; assay type: cell-based, human; settings: co-incubation, probe 50 nm, (R)-palmitoylcarnitine 100, 250 and 500 nM
Experimental: The SCC38 cells were co-incubated with the indicated concentrations of (R)-palmitoylcarnitine and 50 nM of 4 (A) or 50 nM of MitoTracker (B) before analyzing by flow cytometry. The data represent the mean fluorescence intensity (MFI) of the stained cells (upper panels) and representative images of the cytometry profiles (lower panels). • Fig. 7.
To test if CACT was in fact involved in the channeling of 4 to the mitochondrial matrix, we firstly studied the effect of (R)-(+)-palmitoylcarnitine, a natural CACT substrate, in cell labeling by 4.

[5] = tested on: SCC38 cells; test: Labeling in the presence of FCCP (depolarized mitochondrial membrane), flow cytometry; assay type: cell-based, human; settings: 60 µM FCCP for 3 h at 37 °C before staining; 20 nM of 4 or 0.5 nM of MitoTracker
Experimental: • Fig. 1. In vivo labeling of SCC38 cells with compound 4 at different concentrations (50, 100 and 500 nM). Scale bar: 10 µm • Fig. 2. Flow cytometry studies in SCC38 and HeLa cell lines labeled with compound 4 and Mito Tracker® Red. Histograms wherein fluorescence intensity vs number of events is represented for each of the staining times (5, 15 and 30 min) and control (Ctrl), for the SCC38 and HeLa cells and for each of the two markers. • Fig. 3. Absorption (A) and fluorescence (B) spectra, normalized to molar absorption and fluorescence quantum yield of probe 4 in different solvents; chloroform (green), acetone (black), acetonitrile (red), ethanol (blue) and water (gray). • Fig. 4. […] (A) Flow cytometry analysis of SCC38 cells incubated in the presence (+FCCP) or absence (-FCCP) of FCCP 60 µM for 3 h before staining with 20 nM of 4 or 0.5 nm of MitoTracker. The data represent the mean fluorescence intensity (MFI) of the stained cells. (B) Microscopy analysis of SCC38 cells pretreated or not with FCCP before co-staining with 20 nM of 4 and 0.5 nm of MitoTracker. The graphs show the fluorescence profiles of the regions of interest indicated with white lines in the right-hand panels. Scale bars: 10 µm). • Fig. 5. […] The data represent the mean fluorescence intensity (MFI) of the stained cells (upper panels) and representative images of the cytometry profiles (lower panels). • Fig. 7. […] (B) The data represent the mean fluorescence intensity (MFI) of the labeled cells.
The labeling was analyzed by flow cytometry in the presence of carbonyl cyanide-p-(trifluoromethoxy)phenylhydrazone (FCCP), a protonophore used to reduce the mitochondrial membrane potential (ΔΨm) through depolarization of the mitochondrial membrane. […] Indeed, the suppression of dye-mitochondria electrostatic attraction as a passive labeling mechanism reduces the concentration of the dye in the cell organelle and, thus, the probability and extent of the fluorescence deactivation processes, with the ensuing increase in their efficiency. […]

[6] = tested on: SCC38 cells; test: Co-localization by co-staining with MitoTracker Red, fluorescence microscopy of live cells; assay type: cell-based, human; settings: co-staining, compound 4 50 nM, MitoTracker® Red 25 nM, 30 minutes
Experimental: (§1) The cell assays were carried out on two human cell lines: SCC38 and HeLa. The SCC38 line is derived from human laryngeal epidermoid carcinoma patients, while HeLa, the first human cell line established in culture, is derived from cervical cancer. The culture medium used for both cell lines was DMEM (Dulbecco's Modified Eagle's Medium) supplemented with 10% of fetal bovine serum (FBS), 100 U/mL of penicillin, 200 µg/mL of streptomycin, 100 µmol/L of non-essential amino acids and 2 mmol/L of glutamine. The cultures were incubated at 37 °C and 5% of CO2.
These cell lines were stained with the fluorescent probes synthesized following the following protocol: 30,000-50,000 SCC38 cells were plated on 24-well glass-bottomed plates and cultured to 70% confluence. The culture medium was then removed from the well and washed at least three times with DMEM medium without additives. Next, 1 mL of DMEM and the corresponding fluorescent compound was added to the well. The cells were incubated at 37 °C for 30 minutes, after which the medium was removed and newly washed with DMEM. Lastly, complete medium was added and the cells were observed under the microscope. Microscopy analysis was performed using a Zeiss Axio Observer Z1 microscope with AxioCam MRM and ApoTome 2 (Carl Zeiss, Germany) with different 40X 63X oil immersion objectives. The cells were also stained with MitoTracker® Red CMXRos (Thermo Fisher), following the manufacturer's instructions, with the aim of carrying out comparative studies with the new fluorescent markers synthesized herein. Initially, both compounds 3 and 4 were used at a concentration of 50 nM, and staining time was also 30 minutes.
In order to confirm the specificity of the mitochondrial labeling, co-localization studies were carried out by co-staining with the commercial mitochondrial marker MitoTracker® Red in the cell line. Compound 4 was used at a concentration of 50 nM and MitoTracker® Red at 25 nM. Both compounds were added simultaneously and incubated for 30 minutes.

[7] = tested on: SCC38; test: Kinetics of cell labeling by flow cytometry; assay type: cell-based, human; settings: SCC38, 50 nM, staining times 5, 15 and 30 min
Experimental: as §1
(§2) The kinetics of cell labeling with 4 was studied by flow cytometry with the SCC38 and HeLa cell lines, using MitoTracker® Red as a control marker, both at a concentration of 50 nM. The staining times studied were 5, 15, 30 and 45 minutes. After staining, the medium was removed, washed with PBS, trypsinized and the pellet was resuspended in 500 µL of PBS and introduced in the cytometer after filtration. A Beckman Coulter Cytomics FC500 Flow Cytometry Analyzer was used (Scientific-Technical Services, Universidad de Oviedo). Part of the resuspended cells were also plated and observed under the microscope.

[8] = tested on: HeLa; test: Kinetics of cell labeling by flow cytometry; assay type: cell-based, human; settings: 50 nM, staining times 5, 15 and 30 min
Experimental: as §1, §2

SMILES: CC1=CC(C)=[N+]2C1=C(c1c(C)cc(C)cc1C)c1c(C)cc(C)n1[B-]21OC(=O)C[C@@H](C[N+](C)(C)C)O1 (stereo partly drawn) [(S)-4]
fluorescence intensity compared with 4 [1]: considerably lower

half-life at 15000 µM [2]: 10 min
kfl: Radiative decay constant ([3]; Water): 0.66 10^8s^- 1
knr: Non-Radiative decay constant ([3]; Water): 1.00 10^8s^- 1
Δv: Stokes shift ([3]; Water): 542 cm⁻¹
εmax: Molar extinction coefficient at the absorption peak ([3]; Water): 4.1 × 10^4 (M^-1 cm^- 1)
λab: Absorption peak wavelength ([3]; Water): 501 nm
τ: Fluorescence lifetime ([3]; Water): 6.00 ns
λfl: Fluorescence peak wavelength ([3]; Water, excitation at 490 nm): 515 nm
φf: Quantum yield ([3]; Water, reference PM567 in ethanol): 0.40
SMILES: Cc1cc(C)c(C2=C3C=CC=[N+]3[B-]3(OC(=O)C[C@H](C[N+](C)(C)C)O3)n3cccc32)c(C)c1 (stereo partly shown) [Compound 3]
tendency towards H- or J- type aggregation ([3]; concentrations as high as 10^-4 M): not exhibit any tendency towards H- or J- type aggregation

SMILES: ClCc1ccc(C2=c3cc4c5c(c3Oc3c2cc2c6c3CCCN6CCC2)CCC[N+]=5CCC4)cc1 [MitoTracker® Red, reference compound]
effect of (R)-palmitoylcarnitine on fluorescence intensity [4]: only a slight increase of fluorescence
mitochondrial fluorescence of cells treated with FCCP [5]: highly attenuated mitochondrial fluorescence
location of the stain in the mitochondria [6]: concentrated along the edges of the mitochondria
change of staining intensity with incubation time [7]: barely varied upon increasing incubation time
change of staining intensity with incubation time [8]: barely varied upon increasing incubation time
